{"source": "patent US20100227895A1", "about": "“METHOD FOR TREATING EQUINE LAMINITIS” (MPCO- THE MAGIC POWDER COMPANY, priority 2009, published 2010)", "key": {"NE synthesis": {"tested_on": "NE synthesis", "conditions": "analogous to the KM of the overall reaction; read-out: concentration of tyrosine at the half-maximal rate of NE synthesis; cited from earlier work"}, "[1]": {"molecular_target": "tyrosine hydroxylase (TH) (Homo sapiens, UniProt P07101)", "sequence (P07101 whole entry)": "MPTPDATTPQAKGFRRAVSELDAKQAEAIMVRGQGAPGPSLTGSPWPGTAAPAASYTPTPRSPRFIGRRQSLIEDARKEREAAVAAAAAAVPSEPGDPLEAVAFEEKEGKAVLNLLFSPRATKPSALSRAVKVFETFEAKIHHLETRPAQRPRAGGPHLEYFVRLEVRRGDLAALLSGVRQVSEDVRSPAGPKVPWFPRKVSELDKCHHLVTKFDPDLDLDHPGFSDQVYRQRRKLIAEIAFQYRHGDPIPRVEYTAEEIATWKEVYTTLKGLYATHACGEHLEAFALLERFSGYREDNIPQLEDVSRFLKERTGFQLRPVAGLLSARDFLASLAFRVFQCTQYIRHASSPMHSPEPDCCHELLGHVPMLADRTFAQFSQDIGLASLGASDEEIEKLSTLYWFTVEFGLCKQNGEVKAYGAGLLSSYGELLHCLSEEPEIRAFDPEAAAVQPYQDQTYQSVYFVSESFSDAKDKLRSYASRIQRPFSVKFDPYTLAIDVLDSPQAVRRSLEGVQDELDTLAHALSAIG", "conditions": "concentration of T at which the reaction proceeds at 50% of the maximal rate; cited from earlier work"}, "equine laminitis": {"tested_on": "equine laminitis", "test": "Oral treatment of horses with laminitis (case examples)", "assay_type": "in vivo, horse", "method": "The preferred form of practicing the present method will now be described for a horse weighing approximately 500 kg. In practicing the present method, the four main ingredients that are administered to prevent, treat and/or cure laminitis are: choline bitartrate, L-tyrosine, Niacin, and d-Calcium Pantothenate. These ingredients may be administered in corresponding approximate ratios of 40:41:8:16 (by weight). In the preferred embodiment, an approximately 35 day supply of the treatment includes 80 grams of choline bitartrate, 82 grams of L-tyrosine, 16 grams of niacin, and 32 grams of d-calcium pantothenate. Each dose for oral administration contains approximately 1127.5 mg of choline bitartrate, 1155.6 mg of L-tyrosine, 225.5 mg of niacin, and 451.1 mg of d-Calcium pantothenate. Preferably, this dosage is administered twice per day to an affected horse.\nA quarter-horse mare first experienced laminitis at age 5 after exposure to septic waste from a failing septic field. This first bout with laminitis lasted roughly two years. At age 9, the mare was left on a heavily grazed pasture for one day and developed laminitis, the second onset of the disease during its life, presumably from exposure to fructans in grass. Transportation of the mare exacerbated the laminitis symptoms. The mare recovered gradually, but spent a lot of time lying down. […]"}}, "data": [{"compound": "N[C@@H](Cc1ccc(O)cc1)C(=O)O", "note": "[tyrosine, 4-hydroxyphenylalanine]", "values": [{"measurement": "EC50", "setting": "NE synthesis", "value": "10 to 40", "unit": "µM"}, {"measurement": "Km", "setting": "[1]", "value": "~25", "unit": "µM"}, {"measurement": "condition of the mare with laminitis", "setting": "equine laminitis; Example 1, quarter-horse mare, second onset of laminitis, initial dosing, daily for nearly 90 days", "value": "improved the condition"}, {"measurement": "recurrence of laminitis", "setting": "equine laminitis; Example 2, ten year-old mare, recommended dosage after the bout", "value": "did not re-experience laminitis"}]}]}
